Read-outs that look alike come from different tables or passages of the source.
Key:
HEK293 cells = assay: Cytotoxicity, MTT growth inhibition; assay type: cell-based, human; settings: 500 μM
Method: In another aspect, the toxicity was evaluated by the growth inhibition of 5f against human embryonic kidney 293 (HEK293) cells. It was shown that 5f was nontoxic to HEK293 cells even at high concentration of 500 μM (Supplementary B of Fig. S2).
HEK293 cells were purchased from Centre of Cells Resource, Shanghai Institute of Life Science, Chinese Academy of Sciences, P. R. China. HEK293 cells in the exponential phase were plated on a 96-well cell culture plate with 5 × 10^3 cells in each well supplemented with 100 U/ml of penicillin and 100 μg/ml of streptomycin, which were cultured in a humidified atmosphere of 95% and 5% CO2 at 37 °C for 24 h. The cells were adherent. […] 6 wells were set for each group. The wells without addition of the drug were set as controls. The cells in each of the wells were cultured for another 24 h. Then 15 μl of MTT (5 mg/mL) was added to each well. The plates were then incubated at 37 °C for 4 hours, then the supernatants were discarded. 150 μL of DMSO solutions were added to each of the wells and the solutions were mixed thoroughly. Then the plates were incubated at 37 °C for another 10 minutes. Each sample was mixed again and the resulting formazan was measured by its absorbance at 570 nm using a BIO-RAD680 plate reader (Thermo, USA). The experiments were repeated at least 3 times and compared with the control experiment. […]

chick embryo = assay: Chick embryo model of hyperglycemia: mortality, NTD rate, body weight; assay type: in vivo; settings: glucose 0.4 mmol/egg
Method: In order to evaluate further the potential of 5f as an agent to treat diseases caused by high glucose inside the system, a chick embryo model of treatment with high glucose was set up.
Fertilized leghorn eggs were purchased from the Avian Farm of the South China Agriculture University (Guangzhou, China). Before the injection of glucose (Sigma–Aldrich, MO, USA), the eggs were incubated in a humidified incubator (Grumbach, Germany) at 37 °C with 60% humidity until the embryos reached the desired stage. […] Glucose was dissolved in 200 μL chicken saline and injected on EDD 1. Mortality, abnormality and body weight measurements were made on EDD 5. Embryos were removed from their eggs and weighed. The percent mortality was measured by counting the number of dead versus all embryos. The rate of NTD of the embryos was assessed by the number of NTD versus survival embryos.

[1] = system: oxidative stress (ROS, MDA, ORAC); assay: ROS generation, MDA and ORAC level in chick embryos; assay type: in vivo; settings: glucose-treated chick embryos; for ORAC level (anti-oxidative capacity) of embryo: EDD 5
Text: It has been reported that hyperglycemia increased the production of ROS. Blocking the generation of ROS could at least partially prevent the possible damage of hyperglycemia. No doubt, oxidative stress will be induced in glucose treated embryos. This conclusion was confirmed by the determination of ROS and malondialdehyde (MDA) levels, and the anti-oxidation ability in chick embryos on EDD 5. […] However, treatment of 5f decreased both levels of ROS and MDA in a dose-dependent manner.
In addition, the ORAC level is indicative of the anti-oxidative capacity.
ROS generation ratios in the eyes of EDD 5 chick embryos were detected with 5 μmol 2′,7′-dichlorofluorescein-diacetate (DCFH-DA, Sigma-Aldrich). The peroxide content was determined by measuring thiobarbituric-acid-reactive substances (TBARS) with a commercial MDA kit (Nanjing Jiancheng Institute of Biotechnology, Nanjing, China). The procedures for the ORAC assay were modified from the previously described method. The automated ORAC assay was carried out on a decay of the fluorescein signal and determined with an excitation/emission filter pair of 485/527 nm in a GENios Lueifcrase microplate reader (TECAN) at 37 °C. Final results were calculated on the basis of the difference in the area under the fluorescein decay curve between the blank and each sample.

ALR1 = target: T1, ALR1 (Gallus gallus, UniProt Q5ZK84); assay: ALR1 activity in glucose-treated embryos (chicken ALR1 ELISA kit); assay type: in vivo; settings: glucose-treated chick embryos, EDD 5, compared with the model group
T1 construct: Embryos on EDD 5 were homogenized with chicken saline and centrifuged; from tissue; host or cells: EDD 5 chick (leghorn) embryo homogenate supernatant
T1 sequence (Q5ZK84 1-327): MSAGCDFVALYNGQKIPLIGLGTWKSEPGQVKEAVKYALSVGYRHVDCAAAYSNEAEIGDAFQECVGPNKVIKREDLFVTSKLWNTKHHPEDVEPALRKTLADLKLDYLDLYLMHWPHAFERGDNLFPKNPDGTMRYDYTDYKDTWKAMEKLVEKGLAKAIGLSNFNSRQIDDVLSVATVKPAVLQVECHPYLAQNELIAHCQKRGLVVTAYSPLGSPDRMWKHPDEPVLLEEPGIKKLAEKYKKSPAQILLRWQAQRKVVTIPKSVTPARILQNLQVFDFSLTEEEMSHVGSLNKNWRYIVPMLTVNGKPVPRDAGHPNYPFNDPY
Method: (§1) Embryos on EDD 5 were homogenized with chicken saline and centrifuged (4 °C, 10000 rpm, 10 min). The supernatant was used for measuring ALR1 activity in the sample. A chicken ALR1 ELISA kit (Jianglai Biotechnology, China) were used for detection. The concentration of ALR1 in the samples was then determined by comparing the OD of the samples to the standard curve.

[2] = ORACFL radical absorbance capacity assay
Text: With the CHCA scaffold, we hypothesized that 5a–j should have antioxidant activity. Therefore, a radical absorbance capacity assay (ORACFL)[41] was employed to assess their capacities. This method is based on the inhibition of peroxyl-radical-induced oxidation initiated by thermal decomposition of azo-compounds, in this case 2,2′-azo-bis (2-amidinopropane) dihydrochloride (AAPH). Trolox (6-hydroxy-2,5,7,8-tetramethylchroman-2-carboxylic acid) was used as a standard reference. Data is expressed as micromoles of Trolox equivalents (TE) per […] of sample (μmol TE/ml or U/ml).
Antioxidant capacity was determined according to the procedure described previously.

human ALR2 = target: T2, human ALR2 (Homo sapiens, UniProt P15121); assay: ALR2 inhibition (in vitro reduction of D,L-glyceraldehyde); assay type: biochemical
T2 construct: purchased WAKO Pure Chemical Industries, Ltd. (Japan); host or cells: baculovirus-insect cell expression system
Method: Human ALR2 was purchased from WAKO Pure Chemical Industries, Ltd. (Japan), which was purified from the culture medium of baculovirus-insect cell expression system. […] ALR2 inhibition was determined spectrophotometrically according to the procedure described previously.

ALR2 = assay: AR (ALR2) activity in glucose-treated embryos (chicken AR ELISA kit); assay type: in vivo; settings: glucose-treated chick embryos, EDD 5, edaravone group (0.1 nM)
Method: As expected, treatment of 5f decreased ALR2 activity in a dose-dependent manner. […] However, EDA, which is a clinical radical scavenger, was shown no effect on the inhibition of ALR2.
as §1, with “AR” for “ALR1”, “curve. The sorbitol contents of the chick embryo were determined by a Sorbitol Colorimetric Assay Kit (BioVision, USA). In the assay, sorbitol is oxidized to fructose with the proportional development of intense color with an absorbance maximum at 560 nm.” for “curve.”

[3] = human ALR2, D,L-glyceraldehyde as substrate, read-out: IC50 (ALR2 inhibition)

| Structure (SMILES) | IC50 (human ALR2; [3]) | ORAC ([2]; 3.125 μg/ml) | ORAC ([2]; 6.25 μg/ml) | ORAC ([2]; 12.5 μg/ml) | further results |
| --- | --- | --- | --- | --- | --- |
| CC(/C=C1\SC(=S)N(CC(=O)O)C1=O)=C\c1ccccc1 [Epalrestat, epalrestat, reference compound] | – | – | – | – | inhibition rate (growth inhibition) (HEK293 cells): 36.4%; Body weight (chick embryo; EDD 5, dose 1 μM): 300.1 ± 3.6 mg; Death (/n) (chick embryo; EDD 5, dose 1 μM): 25.0%; NTD (/survival) (chick embryo; EDD 5, dose 1 μM): 26.7%; ORAC level (anti-oxidative capacity) of embryo [1]: no effect; MDA level in embryo ([1]; EDD 5, dose 1 μM): no effect; ROS level in embryo ([1]; EDD 5, dose 1 μM): no effect; ALR1 level in embryo (ALR1): no obvious change |
| CC(=O)N1CCC[C@@H]1C(=O)NCCNC(=O)/C(C#N)=C/c1ccc(O)cc1 [Compound 5b, (R,E) -1-acetyl - N - (2-(2-cyano-3-(4-hydroxyphenyl)acrylamido)ethyl)pyrroli-dine-2-carboxamide] | 136 ± 2.4 nM | 47.1 ± 2.4 U/ml | 44.1 ± 2.5 U/ml | 42.9 ± 3.3 U/ml | – |
| CC1=NN(c2ccccc2)C(=O)C1 [Edaravone, reference compound] | – | – | – | – | Body weight (chick embryo; EDD 5, dose 0.1 nM): 310.8 ± 11.6 mg; Death (/n) (chick embryo; EDD 5, dose 0.1 nM): 20.0%; NTD (/survival) (chick embryo; EDD 5, dose 0.1 nM): 18.8%; ORAC level (anti-oxidative capacity) of embryo [1]: recovered; ALR2 activity in embryo (ALR2): no effect |
| N#CC(=Cc1ccc(O)cc1)C(=O)O [CHCA, α-cyano-4-hydroxycinnamic acid] | – | 52.3 ± 3.1 U/ml | 51.2 ± 1.1 U/ml | 48.8 ± 1.3 U/ml | IC50 (human ALR2): 133 ± 1.8 nM |
| CC(=O)N1CCC[C@H]1C(=O)NCCNC(=O)/C(C#N)=C/c1ccc(O)cc1 [Compound 5a, (S,E) - 1 - acetyl -N-(2-(2-cyano-3-(4-hydroxyphenyl)acrylamido)ethyl)pyrroli-dine-2-carboxamide] | 137 ± 2.9 nM | 57.0 ± 2.3 U/ml | 52.4 ± 2.1 U/ml | 49.8 ± 1.7 U/ml | – |
| O=c1c2cc(O)c(O)cc2oc2cc(O)c([C@@H]3O[C@H](CO)[C@@H](O)[C@H](O)[C@H]3O)c(O)c12 [Mangiferin, reference compound] | 138 ± 2.2 nM | 75.3 ± 0.4 U/ml | 74.8 ± 0.8 U/ml | 73.2 ± 7.2 U/ml | – |
| Cc1c(C)c2c(c(C)c1O)CCC(C)(C(=O)O)O2 (centres unmarked) [Trolox, 6-hydroxy-2,5,7,8-tetramethylchroman-2-carboxylic acid, reference compound] | – | 95.3 ± 3.7 U/ml | 92.8 ± 2.7 U/ml | 85.2 ± 4.3 U/ml | – |

Second part, led by results:

| IC50 (human ALR2; [3]) | Structure (SMILES) | ORAC ([2]; 3.125 μg/ml) | ORAC ([2]; 6.25 μg/ml) | ORAC ([2]; 12.5 μg/ml) | further results |
| --- | --- | --- | --- | --- | --- |
| 99.8 ± 2 nM | CC(=O)N[C@@H](COCc1ccccc1)C(=O)NCCCNC(=O)/C(C#N)=C/c1ccc(O)cc1 [Compound 5e, (S,E) – N - (3-(2-acetamido-3-(benzyloxy)propanamido)propyl)-2-cyano-3-(4-hydroxyphenyl)acrylamide] | 65.7 ± 2.7 U/ml | 62.6 ± 1.5 U/ml | 60.4 ± 2.2 U/ml | – |
| 252 ± 4.6 nM | CC(C)(C)C(=O)N[C@H](COCc1ccccc1)C(=O)NCCNC(=O)/C(C#N)=C/c1ccc(O)cc1 [Compound 5h, (R,E) - N - (2-(2-pivalamido-3-(benzyloxy)propanamido)ethyl)-2-cyano-3-(4-hydroxyphenyl)acrylamide] | 50.3 ± 3.2 U/ml | 45.2 ± 1.3 U/ml | 42.8 ± 1.1 U/ml | – |
| 247 ± 4.5 nM | CC(C)(C)C(=O)N[C@H](COCc1ccccc1)C(=O)NCCCNC(=O)/C(C#N)=C/c1ccc(O)cc1 [Compound 5j, (R,E) - N - (3-(2-pivalamido-3-(benzyloxy)propanamido)propyl)-2-cyano-3-(4-hydroxyphenyl)acrylamide] | 38.6 ± 1.9 U/ml | 35.3 ± 1.7 U/ml | 30.6 ± 2.2 U/ml | – |
| 404 ± 7 nM | CC(=O)N[C@H](COCc1ccccc1)C(=O)NCCNC(=O)/C(C#N)=C/c1ccc(O)cc1 [Compound 5d, (R,E) – N - (2 - (2-acetamido-3-(benzyloxy)propanamido)ethyl)-2-cyano-3-(4-hydroxyphenyl)acrylamide] | 38.3 ± 1.9 U/ml | 35.4 ± 3.2 U/ml | 33.3 ± 4.1 U/ml | melting point: 175 to 177 °C |
| 221 ± 3.9 nM | CC(C)(C)C(=O)N[C@@H](COCc1ccccc1)C(=O)NCCCNC(=O)/C(C#N)=C/c1ccc(O)cc1 [Compound 5i, (S,E) - N - (3-(2-pivalamido-3-(benzyloxy)propanamido)propyl)-2-cyano-3-(4-hydroxyphenyl)acrylamide] | 36.4 ± 3.5 U/ml | 35.6 ± 3.9 U/ml | 35.3 ± 2.1 U/ml | – |
| 273 ± 4.6 nM | CC(C)(C)C(=O)N[C@@H](COCc1ccccc1)C(=O)NCCNC(=O)/C(C#N)=C/c1ccc(O)cc1 [Compound 5g, (S,E) - N - (2-(2-pivalamido-3-(benzyloxy)propanamido)ethyl)-2-cyano-3-(4-hydroxyphenyl)acrylamide] | 38.3 ± 2.6 U/ml | 33.9 ± 1.4 U/ml | 30.4 ± 3.7 U/ml | – |
| 316 ± 6.2 nM | CC(=O)N[C@@H](COCc1ccccc1)C(=O)NCCNC(=O)/C(C#N)=C/c1ccc(O)cc1 [Compound 5c, (S,E) – N - (2 - (2-acetamido-3-(benzyloxy)propanamido)ethyl)-2-cyano-3-(4-hydroxyphenyl)acrylamide] | 32.4 ± 1.8 U/ml | 30.4 ± 1.7 U/ml | 26.4 ± 2.9 U/ml | melting point: 176 to 178 °C |

From article PMC4842970, “Bioactivity Focus of α-Cyano-4-hydroxycinnamic acid (CHCA) Leads to Effective Multifunctional Aldose Reductase Inhibitors” (Scientific Reports, 2016)
